According to patent US20150231147A1, “METHODS FOR ACUTE AND LONG-TERM TREATMENT OF DRUG ADDICTION” (DemeRx, Inc., priority 2014, published 2015):
Entries after “also recorded” stand apart in the source; their conditions may differ. Read-outs that look alike come from different tables or passages of the source.

What was measured:
Type in all cases: in vivo, human
[1] = Plasma noribogaine pharmacokinetics, ascending single oral dose, healthy volunteers; conditions: for CL/F / AUC(0-inf) / Cmax / Tmax / Vd/F / AUC(0-t) / half-life: plasma; for AUC(0-inf) / Cmax / Tmax / Vd/F / AUC(0-t) / half-life: human; for AUC(0-t): read-out: AUC0-216
[2] = tested on: healthy, drug-free male volunteers; test: Pupillary miosis assessed by pupillometry
Experimental: (§1) Pulse oximetry and capnography data were collected continuously using a GE Carescape B650 monitoring system from 2 hours prior to dosing and until six hours after dosing, and thereafter at 12, 24, 48 and 72 hours post-dosing. […] Pupillary miosis was assessed by pupillometry.

[3] = tested on: healthy, drug-free male volunteers; test: Safety and tolerability of noribogaine in healthy humans (adverse events, vital signs, ECG)
Experimental: as §1
Safety and tolerability of noribogaine were tested in the group of volunteers from Example 1. […] Safety evaluations included clinical monitoring, recording of adverse events (AEs), safety laboratory tests, vital signs, ECG telemetry from −2 h to 6 h after dosing, and 12-lead electrocardiograms (ECGs) up to 216 hours post-dosing.

[4] = tested on: opioid-dependent participants; test: Treatment emergent adverse events in opioid-dependent participants; conditions: opioid-dependent patients, single 60 mg dose (N = 6)
Experimental: The efficacy of noribogaine in humans was evaluated in opioid-dependent participants in a randomized, placebo-controlled, double-blind trial. […] See U.S. application Ser. No. 14/214,157, filed Mar. 14, 2014 and Ser. No. 14/346,655, filed Mar. 21, 2014, which are incorporated herein by reference in their entireties.
Three cohorts of nine (9) subjects (6 administered noribogaine and 3 administered placebo in each cohort) were evaluated for tolerability, pharmacokinetics, and efficacy. Cohort 1 received a single dose of 60 mg noribogaine or placebo. Cohort 2 received a single dose of 120 mg noribogaine or placebo. Cohort 3 received a single dose of 180 mg noribogaine or placebo.

[5] = healthy male volunteers, single oral 3 mg noribogaine, mean (n = 6)
[6] = healthy male volunteers, single oral 10 mg noribogaine, mean (n = 6)
[7] = healthy male volunteers, single oral 30 mg noribogaine, mean (n = 6)
[8] = healthy male volunteers, single oral 60 mg noribogaine, mean (n = 6)
[9] = healthy volunteers, 3-60 mg single oral doses

CC[C@H]1CC2C[C@H]3c4[nH]c5ccc(O)cc5c4CCN(C2)C13 [Noribogaine]
CL/F [1, 5]: 41.4 L/h
CL/F [1, 6]: 42.3 L/h
CL/F [1, 7]: 46.9 L/h
CL/F [1, 8]: 34.0 L/h
Volume of distribution across dose groups [1, 9]: 1417 to 3086 L
dose dependence of Cmax and AUC [1, 9]: increased linearly with dose
time of peak concentrations after oral dosing [1, 9]: 2 to 3 h
AUC(0-inf) [1, 5]: 74.2 ng·h/mL
Cmax [1, 5]: 5.2 ng/mL
Tmax [1, 5]: 1.9 h
Vd/F [1, 5]: 2490 L
AUC(0-t) [1, 5]: 72.2 ng·h/mL
half-life ([1]; healthy male volunteers, single oral 3 mg noribogaine, mean (n = 6), read-out: t1/2 (converted)): 40.9 h
AUC(0-inf) [1, 6]: 254 ng·h/mL
Cmax [1, 6]: 14.5 ng/mL
Tmax [1, 6]: 2.9 h
Vd/F [1, 6]: 3090 L
AUC(0-t) [1, 6]: 251 ng·h/mL
half-life ([1]; healthy male volunteers, single oral 10 mg noribogaine, mean (n = 6), read-out: t1/2 (converted)): 49.2 h
AUC(0-inf) [1, 7]: 700 ng·h/mL
Cmax [1, 7]: 55.9 ng/mL
Tmax [1, 7]: 1.8 h
Vd/F [1, 7]: 1850 L
AUC(0-t) [1, 7]: 678 ng·h/mL
half-life ([1]; healthy male volunteers, single oral 30 mg noribogaine, mean (n = 6), read-out: t1/2 (converted)): 27.6 h
AUC(0-inf) [1, 8]: 1960 ng·h/mL
Cmax [1, 8]: 116 ng/mL
Tmax [1, 8]: 2.4 h
Vd/F [1, 8]: 1420 L
AUC(0-t) [1, 8]: 1940 ng·h/mL
half-life ([1]; healthy male volunteers, single oral 60 mg noribogaine, mean (n = 6), read-out: t1/2 (converted)): 29.1 h
half-life ([1]; male, healthy volunteers, 3-60 mg single oral doses, read-out: Mean half-life estimates across dose groups): 28 to 50 h
pupil diameter, each dose group compared with placebo by ANOVA ([2]; after adjusting for baseline differences, p>0.9): no statistically significant differences
pupillary constriction [2, 9]: no evidence of pupillary constriction
Adverse events, Mild ([3]; healthy volunteers, 3 mg dose): Dizziness; also recorded: Epistaxis; also recorded: Headache; also recorded: Back pain
Adverse events, Moderate ([3]; healthy volunteers, 3 mg dose): Headache
number of adverse events reported ([3]; healthy volunteers, 3 mg dose group): five adverse events were reported by two subjects
Adverse events, Mild ([3]; healthy volunteers, 10 mg dose): Headache
number of adverse events reported ([3]; healthy volunteers, 10 mg dose group): one adverse event was reported by single subjects
Adverse events, Mild ([3]; healthy volunteers, 30 mg dose): Headache
number of adverse events reported ([3]; healthy volunteers, 30 mg dose group): one adverse event was reported by single subjects
changes in oximetry, capnography, respiratory rate ([3]; healthy volunteers, 3-60 mg): no changes in oximetry or capnography, or changes in respiratory rate
changes in vital signs or safety laboratory tests ([3]; healthy volunteers, 3-60 mg): no changes in vital signs or safety laboratory tests of note
QTcF values ([3]; healthy volunteers, 3-60 mg, at any time): ≤ 500 ms
intensity of adverse events ([3]; healthy volunteers, all groups, all resolved prior to study completion): mild-moderate intensity
single increase in QTcF ([3]; one subject dosed with 10 mg, 24 hours post-dosing): > 60 ms
Treatment emergent AEs: Catheter Site Infection [4]: 0
Treatment emergent AEs: Catheter Site Pain [4]: 0
Treatment emergent AEs: Catheter Site Related Reaction [4]: 0
Treatment emergent AEs: Cellulitis [4]: 0
Treatment emergent AEs: Diarrhoea [4]: 0
Treatment emergent AEs: Dry Mouth [4]: 0
Treatment emergent AEs: Ear and Labyrinth Disorders [4]: 0
Treatment emergent AEs: Epistaxis [4]: 0
Treatment emergent AEs: Euphoric Mood [4]: 0
Treatment emergent AEs: General Disorders and Administration Site Conditions [4]: 0
Treatment emergent AEs: Hyperaesthesia [4]: 0
